Five compounds from article PMC6458995, “MAP4K4 Inhibition Promotes Survival of Human Stem Cell-Derived Cardiomyocytes and Reduces Infarct Size In Vivo” (Cell Stem Cell, 2019) can be followed below.

In one experiment the target is T1, recombinant human MAP4K4 (Homo sapiens, UniProt O95819).
T1 construct: Human MAP4K4 kinase domain (aa 1-328); purchased Invitrogen PV3687
Nature of the experiment: In vitro MAP4K4 kinase activity assay (HTRF Transcreener ADP). Type of experiment: biochemical. The method, then: MAP4K4 kinase activity was monitored using the CisBio HTRF Transcreener ADP assay, a competitive immunoassay with a reproducible Z’ > 0.6. In the detection step, endogenous ADP and d2-labeled ADP compete for binding an anti-ADP monoclonal antibody labeled with Eu^3+ cryptate. […] Assays were run in Greiner low volume plates with a final reaction volume of 10 μl. Percent inhibition was calculated from 100% activity of MAP4K4 (DMSO only) and 0% activity (no enzyme added). Data were either reported as % inhibition at a single dose or as pIC50 values derived from dose response curves (pIC50 = -log[IC50]).

Another experiment relates to AMPK. Nature of the experiment: Dundee kinase panel. Type of experiment: biochemical, human. The settings on record: 1 μM. How it is done:
(§1) Compounds were screened at 1 μM. For key hits, pIC50 values were then determined by HTRF as above. […] Stability in mouse and human liver microsomes was determined by Cyprotex.

For another experiment, the system named is PHK. Nature of the experiment: Dundee kinase panel. It counts as biochemical, human. The settings on record: 1 μM. How it is done:
as §1

The test system of the next experiment is PINK. Nature of the experiment: Dundee kinase panel. Type of experiment: biochemical, human. Particulars: 1 μM. The method, then: (§2) Kinase selectivity profiling was performed by the International Centre for Kinase Profiling, MRC Protein Phosphorylation and Ubiquitylation Unit (141 kinases; Premier Screen, http://www.kinase-screen.mrc.ac.uk), using a [γ-^33P]ATP filter binding assay ([Bain et al., 2007]). Compounds were screened at 1 μM. For key hits, pIC50 values were then determined by HTRF as above. More complete kinome profiling was performed by Reaction Biology (376 kinases). Stability in mouse and human liver microsomes was determined by Cyprotex.

The target in a further experiment is T2, DYRK1A (Homo sapiens, UniProt Q13627).
T2 construct: lines 1-140) and Reaction Biology
Nature of the experiment: Dundee kinase panel. It counts as biochemical. Particulars: for remaining activity at 1 µM: read-out: residual activity. How it is done: as §2

Another experiment deals with T3, ERK5 (Homo sapiens, UniProt Q13164).
T3 construct: lines 1-140) and Reaction Biology
T3 sequence (Q13164 whole entry): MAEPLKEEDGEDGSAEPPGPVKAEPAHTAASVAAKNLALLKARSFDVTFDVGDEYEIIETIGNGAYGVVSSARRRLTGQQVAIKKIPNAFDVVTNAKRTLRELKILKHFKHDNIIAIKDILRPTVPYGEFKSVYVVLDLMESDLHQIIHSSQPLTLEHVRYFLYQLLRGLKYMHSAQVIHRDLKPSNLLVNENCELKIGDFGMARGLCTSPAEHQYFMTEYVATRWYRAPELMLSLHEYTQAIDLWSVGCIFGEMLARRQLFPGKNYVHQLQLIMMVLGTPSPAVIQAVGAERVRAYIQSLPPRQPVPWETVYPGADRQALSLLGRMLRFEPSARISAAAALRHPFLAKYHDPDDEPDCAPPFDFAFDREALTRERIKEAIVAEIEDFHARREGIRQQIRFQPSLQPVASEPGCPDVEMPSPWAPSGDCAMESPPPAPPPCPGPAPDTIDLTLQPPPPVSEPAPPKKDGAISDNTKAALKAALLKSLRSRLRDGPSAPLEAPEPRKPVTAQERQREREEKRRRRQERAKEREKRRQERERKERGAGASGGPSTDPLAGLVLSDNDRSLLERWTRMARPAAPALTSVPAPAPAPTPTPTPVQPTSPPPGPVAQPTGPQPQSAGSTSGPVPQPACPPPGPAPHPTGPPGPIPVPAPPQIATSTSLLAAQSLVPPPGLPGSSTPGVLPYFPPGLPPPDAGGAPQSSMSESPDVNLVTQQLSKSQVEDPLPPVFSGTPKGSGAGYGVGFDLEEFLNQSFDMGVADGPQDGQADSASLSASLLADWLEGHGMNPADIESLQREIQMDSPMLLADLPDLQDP
Put plainly: Dundee kinase panel. It counts as biochemical. The settings on record: for remaining activity at 1 µM: read-out: residual activity. The method, then:
as §2

Another experiment has as its target T4, MAP4K5 (Homo sapiens, UniProt Q9Y4K4).
T4 construct: lines 1-140) and Reaction Biology
Nature of the experiment: Dundee kinase panel. It counts as biochemical. The settings on record: for remaining activity at 1 µM: read-out: residual activity. How it is done:
as §2

The target in the next experiment is T5, MARK1 (Homo sapiens, UniProt Q9P0L2).
T5 construct: lines 1-140) and Reaction Biology
T5 sequence (Q9P0L2 whole entry): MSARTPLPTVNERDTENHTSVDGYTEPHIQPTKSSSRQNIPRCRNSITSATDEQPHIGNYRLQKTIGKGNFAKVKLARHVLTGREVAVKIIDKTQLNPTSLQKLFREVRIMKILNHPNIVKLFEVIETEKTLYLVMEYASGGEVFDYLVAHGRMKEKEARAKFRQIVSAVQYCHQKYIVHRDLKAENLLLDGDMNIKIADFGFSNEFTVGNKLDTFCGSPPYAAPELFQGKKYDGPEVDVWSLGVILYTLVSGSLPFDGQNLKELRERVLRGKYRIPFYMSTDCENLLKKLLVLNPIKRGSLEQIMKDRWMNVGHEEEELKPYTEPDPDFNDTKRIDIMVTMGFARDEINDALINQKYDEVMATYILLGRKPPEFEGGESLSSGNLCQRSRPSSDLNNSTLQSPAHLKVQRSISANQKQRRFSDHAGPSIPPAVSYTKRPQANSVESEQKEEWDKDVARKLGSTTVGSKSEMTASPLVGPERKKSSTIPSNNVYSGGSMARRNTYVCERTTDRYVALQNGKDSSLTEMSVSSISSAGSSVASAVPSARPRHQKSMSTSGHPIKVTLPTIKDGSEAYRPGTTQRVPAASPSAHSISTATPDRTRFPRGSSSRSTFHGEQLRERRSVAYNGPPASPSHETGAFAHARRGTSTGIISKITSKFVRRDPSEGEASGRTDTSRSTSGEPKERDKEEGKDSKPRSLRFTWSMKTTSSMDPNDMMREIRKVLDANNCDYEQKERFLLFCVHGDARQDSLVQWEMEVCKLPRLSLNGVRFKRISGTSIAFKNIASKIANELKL
Put plainly: Dundee kinase panel. It counts as biochemical. The settings on record: for remaining activity at 1 µM: read-out: residual activity. The method, then: as §2

Another experiment deals with T6, MINK1 (Homo sapiens, UniProt Q8N4C8).
T6 construct: lines 1-140) and Reaction Biology
T6 sequence (Q8N4C8 whole entry): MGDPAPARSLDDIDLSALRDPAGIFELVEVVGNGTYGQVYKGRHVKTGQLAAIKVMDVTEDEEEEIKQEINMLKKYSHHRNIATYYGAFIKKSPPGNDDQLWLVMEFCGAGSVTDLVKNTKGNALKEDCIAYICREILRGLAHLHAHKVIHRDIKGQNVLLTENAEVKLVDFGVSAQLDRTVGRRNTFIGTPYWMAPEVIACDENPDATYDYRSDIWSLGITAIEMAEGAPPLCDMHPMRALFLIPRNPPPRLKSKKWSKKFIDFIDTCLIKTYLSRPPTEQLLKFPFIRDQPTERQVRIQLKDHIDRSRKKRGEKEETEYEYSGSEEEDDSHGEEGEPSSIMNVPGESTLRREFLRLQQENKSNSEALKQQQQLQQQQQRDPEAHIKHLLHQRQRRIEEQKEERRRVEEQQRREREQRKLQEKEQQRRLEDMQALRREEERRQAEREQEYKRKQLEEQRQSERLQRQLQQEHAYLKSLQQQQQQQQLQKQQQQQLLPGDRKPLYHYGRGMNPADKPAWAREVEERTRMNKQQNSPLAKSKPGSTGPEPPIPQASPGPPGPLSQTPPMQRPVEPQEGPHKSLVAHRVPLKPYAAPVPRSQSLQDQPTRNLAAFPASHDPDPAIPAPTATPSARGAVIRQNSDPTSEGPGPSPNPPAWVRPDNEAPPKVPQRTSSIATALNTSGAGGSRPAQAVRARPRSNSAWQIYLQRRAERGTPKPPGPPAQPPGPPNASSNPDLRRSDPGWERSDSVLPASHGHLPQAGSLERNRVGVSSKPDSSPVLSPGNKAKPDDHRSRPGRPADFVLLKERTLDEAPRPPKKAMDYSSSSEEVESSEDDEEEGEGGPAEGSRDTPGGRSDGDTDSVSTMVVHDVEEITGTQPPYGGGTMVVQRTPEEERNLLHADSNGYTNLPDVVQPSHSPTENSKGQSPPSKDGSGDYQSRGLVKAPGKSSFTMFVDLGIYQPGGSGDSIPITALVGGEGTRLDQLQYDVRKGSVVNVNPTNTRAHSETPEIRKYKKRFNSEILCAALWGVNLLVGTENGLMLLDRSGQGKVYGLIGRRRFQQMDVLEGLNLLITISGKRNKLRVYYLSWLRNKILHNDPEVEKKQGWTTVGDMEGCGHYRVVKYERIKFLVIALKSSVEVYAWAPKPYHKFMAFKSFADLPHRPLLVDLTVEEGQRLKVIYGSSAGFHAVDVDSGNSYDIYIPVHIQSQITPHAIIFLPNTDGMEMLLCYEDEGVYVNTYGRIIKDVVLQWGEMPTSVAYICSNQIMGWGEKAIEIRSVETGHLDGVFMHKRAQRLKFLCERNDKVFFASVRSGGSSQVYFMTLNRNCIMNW
Nature of the experiment: Dundee kinase panel. It counts as biochemical. Particulars: for remaining activity at 1 µM: read-out: residual activity. How it is done: as §2

The next experiment deals with T7, Src (Homo sapiens, UniProt P12931).
T7 construct: lines 1-140) and Reaction Biology
T7 sequence (P12931 whole entry): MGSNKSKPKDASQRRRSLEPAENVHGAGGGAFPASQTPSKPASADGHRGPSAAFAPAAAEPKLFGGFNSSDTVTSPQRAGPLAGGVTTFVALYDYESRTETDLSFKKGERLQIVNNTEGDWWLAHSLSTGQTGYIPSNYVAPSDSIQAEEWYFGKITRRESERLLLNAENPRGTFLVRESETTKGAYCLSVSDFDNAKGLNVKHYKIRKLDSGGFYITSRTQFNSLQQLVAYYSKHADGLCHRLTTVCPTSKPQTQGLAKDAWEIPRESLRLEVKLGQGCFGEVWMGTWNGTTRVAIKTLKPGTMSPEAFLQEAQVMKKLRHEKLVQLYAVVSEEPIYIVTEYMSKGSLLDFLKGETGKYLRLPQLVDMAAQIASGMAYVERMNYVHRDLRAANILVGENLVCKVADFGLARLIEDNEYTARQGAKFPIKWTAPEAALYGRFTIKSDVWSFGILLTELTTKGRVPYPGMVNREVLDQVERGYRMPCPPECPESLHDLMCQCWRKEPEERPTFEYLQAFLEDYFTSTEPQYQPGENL
Put plainly: Dundee kinase panel. It counts as biochemical. Particulars: for remaining activity at 1 µM: read-out: residual activity. How it is done: as §2

The next experiment addresses T8, TGFBR1 (Homo sapiens, UniProt P36897).
T8 construct: lines 1-140) and Reaction Biology
T8 sequence (P36897 34-503): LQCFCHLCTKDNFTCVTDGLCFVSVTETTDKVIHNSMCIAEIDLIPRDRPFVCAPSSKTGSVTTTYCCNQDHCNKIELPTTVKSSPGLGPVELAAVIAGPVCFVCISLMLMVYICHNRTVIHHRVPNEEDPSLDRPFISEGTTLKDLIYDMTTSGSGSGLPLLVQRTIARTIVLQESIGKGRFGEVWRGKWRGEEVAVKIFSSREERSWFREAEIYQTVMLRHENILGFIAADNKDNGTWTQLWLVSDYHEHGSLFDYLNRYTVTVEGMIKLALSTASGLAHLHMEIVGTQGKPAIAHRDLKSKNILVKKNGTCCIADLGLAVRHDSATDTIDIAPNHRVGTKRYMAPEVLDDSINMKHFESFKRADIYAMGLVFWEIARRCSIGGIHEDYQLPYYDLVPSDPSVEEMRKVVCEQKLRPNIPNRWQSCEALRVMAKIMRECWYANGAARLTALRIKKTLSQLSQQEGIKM
Nature of the experiment: Dundee kinase panel. The settings on record: for remaining activity at 1 µM: read-out: residual activity. It counts as biochemical. The method, then: as §2

For another experiment, the target named is T9, ULK2 (Homo sapiens, UniProt Q8IYT8).
T9 construct: lines 1-140) and Reaction Biology
T9 sequence (Q8IYT8 1-1036): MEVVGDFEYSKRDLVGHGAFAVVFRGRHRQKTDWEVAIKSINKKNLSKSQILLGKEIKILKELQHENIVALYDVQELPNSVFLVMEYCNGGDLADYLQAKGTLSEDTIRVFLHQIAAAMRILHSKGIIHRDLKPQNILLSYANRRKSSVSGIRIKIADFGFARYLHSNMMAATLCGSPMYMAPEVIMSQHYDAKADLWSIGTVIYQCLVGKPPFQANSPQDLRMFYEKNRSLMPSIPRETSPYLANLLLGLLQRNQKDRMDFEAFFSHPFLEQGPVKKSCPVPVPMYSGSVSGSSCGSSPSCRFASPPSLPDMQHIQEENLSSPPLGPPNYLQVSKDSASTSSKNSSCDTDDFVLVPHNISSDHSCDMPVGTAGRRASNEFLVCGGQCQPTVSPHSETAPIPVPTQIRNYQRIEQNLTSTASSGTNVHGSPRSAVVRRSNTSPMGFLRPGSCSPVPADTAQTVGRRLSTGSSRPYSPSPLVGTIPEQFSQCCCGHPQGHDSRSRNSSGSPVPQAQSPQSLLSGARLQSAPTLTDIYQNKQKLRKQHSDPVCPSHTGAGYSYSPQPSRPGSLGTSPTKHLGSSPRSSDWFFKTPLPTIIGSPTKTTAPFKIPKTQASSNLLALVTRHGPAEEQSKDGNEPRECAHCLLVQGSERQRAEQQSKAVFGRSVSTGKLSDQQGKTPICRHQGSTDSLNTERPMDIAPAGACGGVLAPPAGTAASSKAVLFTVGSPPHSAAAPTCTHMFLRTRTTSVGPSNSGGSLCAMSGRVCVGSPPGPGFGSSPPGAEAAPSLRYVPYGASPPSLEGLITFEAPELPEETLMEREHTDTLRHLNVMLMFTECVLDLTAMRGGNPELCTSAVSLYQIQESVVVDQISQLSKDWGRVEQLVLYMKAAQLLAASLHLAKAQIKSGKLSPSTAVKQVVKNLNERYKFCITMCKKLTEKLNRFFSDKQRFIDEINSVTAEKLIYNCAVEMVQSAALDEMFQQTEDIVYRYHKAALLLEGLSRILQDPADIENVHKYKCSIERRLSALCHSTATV
Put plainly: Dundee kinase panel. Particulars: for remaining activity at 1 µM: read-out: residual activity. Type of experiment: biochemical. The method, then:
as §2

Where [1] appears, read: MAP4K4, HTRF Transcreener ADP assay, read-out: pIC50 (converted).
[2] abbreviates: dose-response, Figure 2C, read-out: IC50 against recombinant human MAP4K4.

Like-named read-outs stand apart in the source and are kept apart here.

T1 sequence (O95819 1-328): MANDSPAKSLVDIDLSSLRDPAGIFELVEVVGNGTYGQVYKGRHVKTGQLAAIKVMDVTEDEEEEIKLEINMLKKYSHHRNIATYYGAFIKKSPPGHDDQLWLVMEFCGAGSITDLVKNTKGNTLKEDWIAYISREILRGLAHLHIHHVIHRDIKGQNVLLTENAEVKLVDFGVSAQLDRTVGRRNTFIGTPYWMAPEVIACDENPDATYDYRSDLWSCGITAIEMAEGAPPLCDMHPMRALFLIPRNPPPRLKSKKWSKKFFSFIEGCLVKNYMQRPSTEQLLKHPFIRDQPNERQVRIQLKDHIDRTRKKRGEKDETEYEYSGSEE
T4 sequence (Q9Y4K4 whole entry): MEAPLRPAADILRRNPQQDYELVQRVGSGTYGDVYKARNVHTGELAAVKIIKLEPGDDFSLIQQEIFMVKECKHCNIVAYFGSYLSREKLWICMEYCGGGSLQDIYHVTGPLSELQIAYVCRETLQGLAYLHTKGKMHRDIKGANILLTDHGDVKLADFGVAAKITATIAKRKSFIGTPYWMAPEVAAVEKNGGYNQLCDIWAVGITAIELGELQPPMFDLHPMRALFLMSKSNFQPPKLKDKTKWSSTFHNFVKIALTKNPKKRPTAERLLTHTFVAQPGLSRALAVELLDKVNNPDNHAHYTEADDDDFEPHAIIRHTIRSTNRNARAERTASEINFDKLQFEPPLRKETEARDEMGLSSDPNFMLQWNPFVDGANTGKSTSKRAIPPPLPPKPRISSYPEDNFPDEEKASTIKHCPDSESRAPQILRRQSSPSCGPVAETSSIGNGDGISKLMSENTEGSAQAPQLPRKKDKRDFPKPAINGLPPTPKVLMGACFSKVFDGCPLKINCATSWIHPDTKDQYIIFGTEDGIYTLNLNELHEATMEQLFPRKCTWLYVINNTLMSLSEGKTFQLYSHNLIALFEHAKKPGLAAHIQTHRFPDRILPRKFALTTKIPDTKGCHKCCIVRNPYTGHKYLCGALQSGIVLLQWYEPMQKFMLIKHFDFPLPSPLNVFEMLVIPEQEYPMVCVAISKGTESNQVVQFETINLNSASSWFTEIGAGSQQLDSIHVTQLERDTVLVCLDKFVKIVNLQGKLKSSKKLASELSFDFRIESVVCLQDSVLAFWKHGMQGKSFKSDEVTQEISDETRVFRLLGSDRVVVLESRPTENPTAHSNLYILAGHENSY

For the compound `COCCOc1ccc(-c2cn(-c3ccccc3)c3nc[nH]c(=O)c23)cc1` [DMX-5804, 5-[4-(2-methoxy-ethoxy)-phenyl]-7-phenyl-3,7-dihydro-pyrrolo[2,3-d]pyrimidin-4-one], the “fold greater potency compared with F1386-0303” value on recombinant human MAP4K4 amounted to 10 fold. The IC50 at recombinant human MAP4K4 (setting [1]) was 2.82 nM. Besides, the residual activity in the experiment with AMPK was determined as 87%; in the experiment on PHK it was 102%; with PINK, 108%. Moreover, the remaining activity at 1 µM at DYRK1A was determined as 110%; at ERK5 it was 115%; at MAP4K5 it was 44%; at MARK1, 81%; on MINK1, 2%; on Src, 92%. In addition, the remaining activity at 1 µM was 95% on TGFBR1 and 89% at ULK2.

Consider `Oc1ncnc2c1c(-c1ccccc1)cn2-c1ccccc1` [F1386-0303, 5,7-diphenyl-7H-pyrrolo[2,3-d]pyrimidin-4-ol], for which the IC50 at recombinant human MAP4K4 (setting [1]) is 34.7 nM; at recombinant human MAP4K4 (setting [2]), 34 nM. Moreover, the residual activity in the experiment on AMPK is 114%; in the experiment with PHK it was 106%; in the experiment with PINK, 104%. In addition, the remaining activity at 1 µM on DYRK1A amounted to 108%; at ERK5, 93%; at MAP4K5, 82%; at MARK1 it was 87%; at MINK1, 11%; on Src, 118%. The remaining activity at 1 µM at TGFBR1 worked out at 141%; on ULK2 it was 86%.

As for `Nc1ncc(C(=O)NC2CN(C(=O)C3CC3)C2)c2ccc(-c3cccc(F)c3)nc12` [GNE-495], the residual activity in the experiment on AMPK came out at 81%; in the experiment on PHK it was 96%; in the experiment with PINK, 104%; on DYRK1A (1 μM) it was 55%; on ERK5 (1 μM), 96%; on MAP4K5 (1 μM) it was 45%. For the same compound, the residual activity on MARK1 (1 μM) turned out to be 57%; at MINK1 (1 μM), 2%; at Src (1 μM), 122%; on TGFBR1 (1 μM), 94%; on ULK2 (1 μM), 100%.

For `O=C1Nc2ccc(I)cc2/C1=C/c1cc(Br)c(O)c(Br)c1` [GW5074], on recombinant human MAP4K4 (setting [2]), the IC50 was found to be 30 nM. Further, the residual activity in the experiment on AMPK is reported as 42%; in the experiment with PHK, 26%.

In the case of `O=C1Cc2c([nH]c3ccc(Br)cc23)-c2ccccc2N1` [Kenpaullone], on recombinant human MAP4K4 (setting [2]), the IC50 was determined as 30 nM. For the same compound, the figures for the residual activity in the experiment on AMPK and in the experiment with PHK were 64% and 20%, respectively.

By residual activity is commonly meant the signal under treatment as a percentage of the control signal.
